Measurements: US9867377B2, “Composition comprising a biological control agent and an insecticide” (Bayer CropScience AG, priority 2012, dated 2018)

What was measured:
Type in all cases: in vivo
[1] = tested on: mustard beetle larvae (Phaedon cochleariae); test: Phaedon cochleariae - spray test; settings: mortality, Chinese cabbage leaf disks sprayed
Description: (§1) Formula for the efficacy of the combination of two compounds • The expected efficacy of a given combination of two compounds is calculated as follows (see Colby, S. R., “Calculating Synergistic and antagonistic Responses of Herbicide Combinations”, Weeds 15, pp. 20-22, 1967): • If • X is the efficacy expressed in % mortality of the untreated control for test compound A at a concentration of m ppm respectively m g/ha, • Y is the efficacy expressed in % mortality of the untreated control for test compound B at a concentration of n ppm respectively n g/ha, • E is the efficacy expressed in % mortality of the untreated control using the mixture of A and B at m and n ppm respectively m and n g/ha, • then is
(§2) [formula] • If the observed insecticidal efficacy of the combination is higher than the one calculated as, “E”, then the combination of the two compounds is more than additive, i.e., there is a synergistic effect.
Phaedon cochleariae—Spray Test
Solvent: 78.0 parts by weight of acetone • • 1.5 parts by weight of dimethylformamide
Emulsifier: alkylaryl polyglycol ether […]
After the specified period of time, mortality in % is determined. […] The mortality values determined thus are recalculated using the Colby-formula (see sheet 1).

[2] = tested on: green peach aphid (Myzus persicae); test: Myzus persicae - spray test; settings: mortality, infested Chinese cabbage leaf disks sprayed; for Efficacy in % after 6 d: 0.4 g ai/ha
Description: as §1, §2
Myzus persicae—Spray Test
(§3) Solvent: 78.0 parts by weight acetone • 1.5 parts by weight dimethylformamide
(§4) Emulsifier: alkylaryl polyglycol ether
(§5) To produce a suitable preparation of active compound, 1 part by weight of active compound is mixed with the stated amount of solvents and is diluted with water, containing an emulsifier concentration of 1000 ppm, to the desired concentration. To produce a suitable preparation of a spore suspension the spores are diluted with emulsifier containing water to the desired concentration. Further test concentrations are prepared by dilution with emulsifier containing water.
Chinese cabbage (Brassica pekinensis) leaf-disks infected with all instars of the green peach aphid (Myzus persicae) are sprayed with a preparation of the active ingredient of the desired concentration.
After the specified period of time, mortality in % is determined. 100% means all aphids have been killed; 0% means none of the aphids have been killed. The mortality values determined thus are recalculated using the Colby-formula (see sheet 1).

[3] = tested on: two spotted spidermite (Tetranychus urticae); test: Tetranychus urticae - spray test, OP-resistant; settings: mortality, infested French beans sprayed
Description: as §1, §2
Tetranychus urticae—Spray Test, OP-Resistant
as §3, §4, §5
French beans (Phaseolus vulgaris) which are heavily infested with all stages of the two spotted spidermite (Tetranychus urticae), are sprayed with a preparation of the active ingredient of the desired concentration.
After the specified period of time, mortality in % is determined. 100% means all spider mites have been killed and 0% means none of the spider mites have been killed. The mortality values determined thus are recalculated using the Colby-formula (see sheet 1).

## O=C(NCCc1ncc(C(F)(F)F)cc1Cl)c1ccccc1C(F)(F)F [Fluopyram]
[1]; 100 g ai/ha
  Efficacy in % after 6 d: 0%
[2]; 1000 g ai/ha
  Efficacy in % after 1 d: 0%

## O=C1C=C(N(Cc2ccc(Cl)nc2)CC(F)F)CO1 [Flupyradifurone]
[3]; 250 g ai/ha
  Efficacy in % after 6 d: 0%
[2]; 20 g ai/ha
  Efficacy in % after 1 d: 0%

## Cc1cc(C)c(C2=C(OC(=O)CC(C)(C)C)C3(CCCC3)OC2=O)c(C)c1 [Spiromesifen]
[3]; 0.5 g ai/ha
  Efficacy in % after 6 d: 0%

## CNC(=O)c1cc(C#N)cc(C)c1NC(=O)c1cc(Cn2nnc(C(F)(F)F)n2)nn1-c1ncccc1Cl [BCS-CL73507]
[1]; 0.08 g ai/ha
  Efficacy in % after 6 d: 0%
[2]
  Efficacy in % after 6 d: 0%

## CCOC(=O)OC1=C(c2cc(C)ccc2C)C(=O)N[C@]12CC[C@@H](OC)CC2 [Spirotetramat]
[2]
  Efficacy in % after 6 d: 0%

## Cc1cc(F)c(-n2nc(C(F)(F)F)nc2N)cc1[S+]([O-])CC(F)(F)F (stereo not shown) [AMSI 378, 1-{2-fluoro-4-methyl-5-[(2,2,2-trifluorethyl)sulfinyl]phenyl}-3-(trifluoromethyl)-1H-1,2,4-triazol-5-amine]
[3]; 4 g ai/ha
  Efficacy in % after 2 d: 30%
  Efficacy in % after 6 d: 0%
